According to publication PMC6792352, “Limited Chemical Structural Diversity Found to Modulate Thyroid Hormone Receptor in the Tox21 Chemical Library” (Environmental Health Perspectives, 2019):
Counter-ions that a name gives are not always drawn. Like-named read-outs stand apart in the source and are kept apart here.

System: GH3-TRE-Luc cell line
Settings: read-out: AC50 (uM) modified / 1000, viability, 1 nM T3 present, 24 h

`COc1ccc(C(=O)CC(=O)c2ccc(C(C)(C)C)cc2)cc1` [1-(4-tert-Butylphenyl)-3-(4-methoxyphenyl)propane-1,3-dione] showed a CC50 (Tox21_110001=Tox21_111427) of 24.3 µM and a CC50 (Tox21_110001=Tox21_202796) of 71.9 µM.
For `BrC1CCC(Br)C(Br)CCC(Br)C(Br)CCC1Br` (stereo not drawn) [1,2,5,6,9,10-Hexabromocyclododecane], the CC50 (Tox21_110001=Tox21_201402) was 17.5 µM and the CC50 (Tox21_110001=Tox21_303176) was 38.8 µM.
`COC(=O)[C@H]1[C@H]2C[C@@H]3c4[nH]c5cc(OC)ccc5c4CCN3C[C@H]2C[C@@H](OC(=O)c2cc(OC)c(OC)c(OC)c2)[C@@H]1OC` [Reserpine] was tested, and the CC50 (Tox21_110001=Tox21_111107) was 12.5 µM, the CC50 (Tox21_110001=Tox21_202395) was 22.9 µM and the CC50 (Tox21_110001=Tox21_300537) was 75.5 µM.
`CC(C)(C)c1cc(O)ccc1O` [tert-Butylhydroquinone] showed a CC50 (Tox21_110001=Tox21_110007) of 7.35 µM, a CC50 (Tox21_110001=Tox21_202309) of 64.9 µM and a CC50 (Tox21_110001=Tox21_300081) of 37.7 µM.
`Oc1c(Cl)cc(Cl)cc1Sc1cc(Cl)cc(Cl)c1O` [Bithionol] gave a CC50 (Tox21_110001=Tox21_110832) of 12.4 µM, a CC50 (Tox21_110001=Tox21_200384) of 6.76 µM and a CC50 (Tox21_110001=Tox21_302919) of 20.3 µM.
In the case of `O=C(c1ccc(OCCN2CCCCC2)cc1)c1c(-c2ccc(O)cc2)sc2cc(O)ccc12` [Raloxifene hydrochloride], the CC50 (Tox21_110001=Tox21_110255) is reported as 5.6 µM and the CC50 (Tox21_110001=Tox21_302369) is reported as 2.98 µM.
`CN(C)CCC=C1c2ccccc2CCc2ccccc21` [Amitriptyline hydrochloride] was tested, and the CC50 (Tox21_110001=Tox21_113122) was 18.1 µM, the CC50 (Tox21_110001=Tox21_201278) was 8.86 µM and the CC50 (Tox21_110001=Tox21_303612) was 13.7 µM.
`O=C(NCC1CCCCN1)c1cc(OCC(F)(F)F)ccc1OCC(F)(F)F` (stereo not drawn) [Flecainide] gave a CC50 (Tox21_110001=Tox21_110151) of 36.6 µM.
In the case of `Nc1ccc(-c2ccc(N)c(N)c2)cc1N` [3,3'-Diaminobenzidine], the CC50 (Tox21_110001=Tox21_302170) is reported as 93.2 µM.
With `Cc1cc(-c2ccc(/N=N/c3ccc4c(S(=O)(=O)O)cc(S(=O)(=O)O)c(N)c4c3O)c(C)c2)ccc1/N=N/c1ccc2c(S(=O)(=O)O)cc(S(=O)(=O)O)c(N)c2c1O` [C.I. Direct Blue 53] the CC50 (Tox21_110001=Tox21_113237) was 21.8 µM.
For `CCN(CC)C(=S)SSC(=S)N(CC)CC` [Disulfiram], the CC50 (Tox21_110001=Tox21_110280) was 19.9 µM, the CC50 (Tox21_110001=Tox21_300403) was 0.0747 µM and the CC50 (Tox21_110001=Tox21_400072) was 81.5 µM.
`CN(C)C(=S)SC(=S)N(C)C` [Tetramethylthiuram monosulfide] gave a CC50 (Tox21_110001=Tox21_111656) of 2.19 µM, a CC50 (Tox21_110001=Tox21_201554) of 1.5 µM and a CC50 (Tox21_110001=Tox21_302880) of 0.329 µM.
`CCCCCCCCCCCCn1cc[n+](C)c1` [1-Dodecyl-3-methylimidazolium bromide] gave a CC50 (Tox21_110001=Tox21_202628) of 80.1 µM.
`COc1ccc(CCN(C)CCCC(C#N)(c2ccc(OC)c(OC)c2)C(C)C)cc1OC` (stereo not drawn) [Verapamil] was tested, and the CC50 (Tox21_110001=Tox21_110300) was 23.2 µM.
With `COc1ccc(CCN2CCC(Nc3nc4ccccc4n3Cc3ccc(F)cc3)CC2)cc1` [Astemizole] the CC50 (Tox21_110001=Tox21_110680) was 4.42 µM and the CC50 (Tox21_110001=Tox21_200095) was 0.889 µM.
For `CN(C)C(=S)SSC(=S)N(C)C` [Thiram], the CC50 (Tox21_110001=Tox21_111150) was 0.159 µM, the CC50 (Tox21_110001=Tox21_201569) was 12.7 µM and the CC50 (Tox21_110001=Tox21_301102) was 0.0524 µM.
`CC(C)(C)NC(=O)[C@@H]1C[C@@H]2CCCC[C@@H]2CN1C[C@@H](O)[C@H](Cc1ccccc1)NC(=O)[C@H](CC(N)=O)NC(=O)c1ccc2ccccc2n1` [Saquinavir mesylate] showed a CC50 (Tox21_110001=Tox21_111137) of 9.01 µM and a CC50 (Tox21_110001=Tox21_202533) of 27.8 µM.
`O=C1Cc2cc(CCN3CCN(c4nsc5ccccc45)CC3)c(Cl)cc2N1` [Ziprasidone] was tested, and the CC50 (Tox21_110001=Tox21_113525) was 15.3 µM.
With `CCCCCCCCCCn1cc[n+](C)c1` [1-Decyl-3-methylimidazolium hexafluorophosphate] the CC50 (Tox21_110001=Tox21_202624) was 11.4 µM.
In the case of `COc1cccc2c1C(=O)c1c(O)c3c(c(O)c1C2=O)C[C@@](O)(C(=O)CO)C[C@@H]3O[C@H]1C[C@H](N)[C@H](O)[C@H](C)O1` [Adriamycin hydrochloride], the CC50 (Tox21_110001=Tox21_112061) is reported as 1.54 µM and the CC50 (Tox21_110001=Tox21_202483) is reported as 0.253 µM.
In the case of `CN(C)c1ccc(C(=C2C=CC(=[N+](C)C)C=C2)c2ccc(N(C)C)cc2)cc1` [Gentian Violet], the CC50 (Tox21_110001=Tox21_111084) is reported as 1.65 µM, the CC50 (Tox21_110001=Tox21_201762) is reported as 0.893 µM and the CC50 (Tox21_110001=Tox21_300571) is reported as 0.536 µM.
Work on `CO[C@@H]1[C@H](OC(=O)/C=C/C=C/C=C/C=C/C(=O)O)CC[C@]2(CO2)[C@H]1[C@@]1(C)O[C@@H]1CC=C(C)C` [Fumagillin] yielded a CC50 (Tox21_110001=Tox21_112066) of 42.9 µM.
`CC[C@]1(O)C[C@@H]2CN(CCc3c([nH]c4ccccc34)[C@@](C(=O)OC)(c3cc4c(cc3OC)N(C)[C@H]3[C@@](O)(C(=O)OC)[C@H](OC(C)=O)[C@]5(CC)C=CCN6CC[C@]43[C@@H]65)C2)C1` [Vinblastine sulfate] showed a CC50 (Tox21_110001=Tox21_111498) of 0.185 µM and a CC50 (Tox21_110001=Tox21_112735) of 2.29 µM.
Compound `CO[C@H]1C[C@@H]2CC[C@@H](C)[C@@](O)(O2)C(=O)C(=O)N2CCCC[C@H]2C(=O)O[C@H]([C@H](C)C[C@@H]2CC[C@@H](O)[C@H](OC)C2)CC(=O)[C@H](C)/C=C(\C)[C@@H](O)[C@@H](OC)C(=O)[C@H](C)C[C@H](C)/C=C/C=C/C=C/1C` [Sirolimus] has a CC50 (Tox21_110001=Tox21_110870) of 0.00123 µM and a CC50 (Tox21_110001=Tox21_112750) of 0.00263 µM.
`CCOc1ccc2c(c1)C(C)=CC(C)(C)N2` [Ethoxyquin] showed a CC50 (Tox21_110001=Tox21_110388) of 39.8 µM.
Compound `CCCCCCCC[n+]1ccn(C)c1` [1-Methyl-3-octylimidazolium trifluoromethanesulfonate] has a CC50 (Tox21_110001=Tox21_200708) of 75.9 µM.
`CC(C)(C)NC(=O)[C@@H]1CN(Cc2cccnc2)CCN1C[C@@H](O)C[C@@H](Cc1ccccc1)C(=O)N[C@H]1c2ccccc2C[C@H]1O` [Indinavir sulfate] showed a CC50 (Tox21_110001=Tox21_111687) of 32 µM.
